Paper PMC11459959, “Discovery of new acetamide derivatives of 5-indole-1,3,4-oxadiazol-2-thiol as inhibitors of HIV-1 Tat-mediated viral transcription” (Antimicrobial Agents and Chemotherapy, 2024)

Assays:
CDK9/Cyclin T = target: T1, CDK9/Cyclin T (Homo sapiens, UniProt P50750); assay: CDK9/Cyclin T kinase assay; type: biochemical; conditions: in vitro kinase kit, serial dilutions
T1 construct: purchased BPS Bioscience
Protocol: In brief, 12.5 µL of the Master Mix (Kinase Assay Buffer 1 supplemented with ATP and CDK Substrate Peptide 2) was mixed with 2.5 µL of each test compound diluted serially. The mixture was then mixed with CDK9/Cyclin T Kinase (50 ng/10 µL diluted in 1× Kinase Assay Buffer 1) and incubated for 45 min. The kinase activity was measured using Kinase-Glo Max (Promega). A decreased level of luminescence relative to ATP concentration indicated kinase activity, which was expressed as the percent of DMSO control.

HIV-1 transcripts = assay: RNA-seq of HIV-1 transcripts in infected TZM-bl cells; type: cell-based; conditions: HIV-1NL4-3 MOI 1, 1.5 µM, 2 days
Protocol: At 48 h after infection, the total RNA was extracted using the Maxwell RSC simplyRNA Cells Kit (Promega) according to the manufacturer’s instructions. RNA integrity was evaluated as RNA integrity number >6 using the Agilent 2100 Bio-analyzer (Agilent Technologies, Santa Clara, CA, USA). The cDNA libraries were constructed using TruSeq Stranded mRNA Sample Preparation Kit (Illumina, San Diego, CA, USA) according to the manufacturer’s instructions. Subsequently, these cDNA libraries were sequenced on the Illumina sequencing platform (NovaSeq6000; Illumina) and 150 bp paired-end reads were generated. Trimmomatic (v.0.32) was used to eliminate low-quality reads and adapter sequences from the sequencing data ([64]). Subsequently, the filtered reads were aligned to the HIV-1 genome (accession: AF324493.2) using STAR (v.2.3.0) ([65]). RT-qPCR analyses were performed as previously described ([66]) with some minor modifications. […] After infection, the infected cells were treated with 1.5 µM of the compounds. Forty-eight hours after treatment, the viral mRNA was isolated, converted to cDNA, and quantified through RT-qPCR on a 7500 Real-Time PCR System (Applied Biosystems) using the Power SYBR Green PCR Master Mix (Applied Biosystems). The comparative cycle threshold (Ct) method was used to analyze relative changes (Δ) in gene expression. The ΔCt values were determined using a 7500 Real-Time PCR System Software (Applied Biosystems) normalizing with gapdh, and the gene expression was calculated using the ΔΔCt-method. The primers used in this assay are the following: gag forward, 5′-[…]-3′, gag reverse, 5′-[…]-3′; gapdh forward, 5′-[…]-3′, gapdh reverse, 5′-[…]-3′.

Tat protein [1] = assay: Nuclear localization of Tat protein, cell fractionation and western blotting; type: cell-based, HIV-1; conditions: 1.5 μM, transfected cells
HIV-1 integrase = target: T2, HIV-1 integrase (Human immunodeficiency virus type 1 group M subtype B, UniProt P04585); assay: In vitro integrase assay; type: biochemical; conditions: 10 µM
T2 construct: purchased XpressBio
Protocol: (§1) Fig 5 (A) Time-of-addition assay. […] Subsequently, the cells were treated with the compounds at the indicated time points (0, 1, 2, 4, 6, 8, 10, 12, 24, 30, 36, 42, and 48 h) after HIV-1 infection. The final concentrations of compounds are described in Materials and Methods. Viral activity according to the timing of drug addition was measured as F-Luc activity at 54 h after infection. The relative activities are represented as the mean ± SD (n = 3) compared with the activity observed 54 h post-infection. The relative time frames associated with each HIV-1 infection step are defined based on the time frame of susceptibility to the drug that blocks that particular infection step. […] At 16 h after infection, the viral reverse transcription (RT) product (viral cDNA) level was determined by quantitative real-time PCR (RT-qPCR) using gag and 18S rRNA primer sets and represented as the mean ± SD (n = 3) normalized against the amount of the 18S rRNA compared with the DMSO control. **P < 0.01 compared with the vehicle (DMSO). […] At 40 h after infection, cellular chromosomal DNA was purified, and the integrated proviral DNA was detected through nested Alu-PCR amplification.
(§2) The activity of HIV-1 RT was determined as previously described with some minor modifications ([66][–][68]). […] The relative levels of RT products were analyzed using the ΔΔCt-method, as described above. […]

[2] = tested on: reverse transcription of the infected virus; assay: Viral reverse transcription product (viral cDNA) in infected A3.01 cells, RT-qPCR; type: cell-based, HIV-1; conditions: 1.5 µM, 16 h after infection
Protocol: as §1, §2

Tat protein [3] = assay: Tat protein level in transfected HeLa cells, western blotting; conditions: HeLa cells transfected with pcDNA3-Flag-Tat86, 1.5 µM, 2 days
Protocol: (C) HeLa cells were transfected with pcDNA3-Flag-Tat86 plasmid. […] The levels of Tat protein were analyzed by western blotting using antibodies against Flag and α-tubulin.
The protein levels of the cell lysates were analyzed using western blotting as previously described ([12]). In brief, whole-cell lysates and samples fractionated in nuclear or cytoplasm were prepared with a 5× SDS sample buffer and subsequently subjected to SDS-polyacrylamide gel electrophoresis. Proteins were subsequently transferred onto polyvinylidene difluoride membranes (Millipore).

T1 sequence (P50750 whole entry): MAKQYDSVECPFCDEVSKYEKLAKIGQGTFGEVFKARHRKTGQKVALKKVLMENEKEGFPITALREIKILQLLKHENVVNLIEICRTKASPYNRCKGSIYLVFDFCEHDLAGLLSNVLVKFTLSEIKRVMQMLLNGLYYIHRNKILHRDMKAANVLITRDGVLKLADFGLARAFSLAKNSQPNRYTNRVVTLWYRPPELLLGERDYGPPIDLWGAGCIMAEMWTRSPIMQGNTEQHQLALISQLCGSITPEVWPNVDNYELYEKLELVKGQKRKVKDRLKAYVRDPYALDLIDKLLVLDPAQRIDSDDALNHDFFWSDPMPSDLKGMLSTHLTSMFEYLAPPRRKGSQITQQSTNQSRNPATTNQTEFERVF
T1 sequence (O60563 whole entry partner): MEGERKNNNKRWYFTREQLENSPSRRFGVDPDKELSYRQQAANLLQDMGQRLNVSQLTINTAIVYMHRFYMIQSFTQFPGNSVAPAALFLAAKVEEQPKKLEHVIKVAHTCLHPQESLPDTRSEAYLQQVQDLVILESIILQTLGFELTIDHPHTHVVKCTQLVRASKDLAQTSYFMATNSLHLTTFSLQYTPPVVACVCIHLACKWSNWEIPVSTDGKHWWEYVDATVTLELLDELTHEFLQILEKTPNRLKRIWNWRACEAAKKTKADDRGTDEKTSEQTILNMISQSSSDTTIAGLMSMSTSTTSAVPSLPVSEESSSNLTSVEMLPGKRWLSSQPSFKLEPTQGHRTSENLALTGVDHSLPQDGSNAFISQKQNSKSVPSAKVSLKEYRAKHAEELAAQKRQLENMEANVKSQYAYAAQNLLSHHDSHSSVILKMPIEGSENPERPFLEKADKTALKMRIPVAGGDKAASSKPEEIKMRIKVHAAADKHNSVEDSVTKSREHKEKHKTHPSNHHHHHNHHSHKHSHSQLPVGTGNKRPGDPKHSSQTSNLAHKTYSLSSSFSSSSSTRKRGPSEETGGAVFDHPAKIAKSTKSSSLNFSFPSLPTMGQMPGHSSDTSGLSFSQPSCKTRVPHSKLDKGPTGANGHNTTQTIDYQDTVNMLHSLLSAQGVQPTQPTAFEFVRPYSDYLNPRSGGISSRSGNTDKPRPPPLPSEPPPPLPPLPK

SMILES	inhibition of CDK9/Cyclin T kinase activity (CDK9/Cyclin T)	read counts of transcripts mapped to the HIV-1 genome (HIV-1 transcripts)	change in nuclear localization of the Tat protein (Tat protein [1])	inhibitory effect on in vitro integrase activity (HIV-1 integrase)	inhibitory effect on reverse transcription of the infected virus [2]	decrease of expression of Tat protein (Tat protein [3])
Cc1[nH]c2ccc(-c3nnc(SCC(=O)N4CCCCC4)o3)cc2c1C [Compound 9, 2-((5-(2,3-Dimethyl-1H-indol-5-yl)-1,3,4-oxadiazol-2-yl)thio)-1-(piperidin-1-yl)ethan-1-one]	did not exhibit	substantially reduced	no changes were observed	did not exhibit the inhibitory effect	did not exhibit the inhibitory effect	did not exhibit a decrease
Cc1[nH]c2ccc(-c3nnc(SCC(=O)N4CCCC4)o3)cc2c1C [Compound 13, 2-((5-(2,3-Dimethyl-1H-indol-5-yl)-1,3,4-oxadiazol-2-yl)thio)-1-(pyrrolidin-1-yl)ethan-1-one]	did not exhibit	substantially reduced	no changes were observed	did not exhibit the inhibitory effect	did not exhibit the inhibitory effect	did not exhibit a decrease
